Measurements from paper PMC10044725, “Antioxidant, Anti-Inflammatory and Anti-Diabetic Activities of Tectona grandis Methanolic Extracts, Fractions, and Isolated Compounds” (Antioxidants, 2023).
Marks after values point to notes of the source that are not given here.

Columns and labels:
[1] = DPPH free radical scavenging assay; conditions: isolated compounds; half scavenging concentration; read-out: DPPH Assay SC50
Procedure: The DPPH free radical scavenging activities of T. grandis methanolic extract, different fractions and its compounds were conducted according to Dr. Yang et al.. […] The absorbance was measured using a microplate reader at 517 nm, and ascorbic acid was used as a positive control. The DPPH scavenging activity was calculated according to the following formula: Scavenging activity (%) = [1 − (A1 − A2)/(A3 − A4)] × 100% (1) where A1 is the OD value of the tested samples, A2 is the OD value of the sample control, A3 is the OD value of the negative control and A4 is the OD value of the blank control. The analysis was performed in triplicates and the results were described as SC50 values.

[2] = test system: IL-1β; experiment: IL-1β secretion in LPS-stimulated RAW 264.7 macrophages (ELISA); format: cell-based, mouse; conditions: 40 µM, LPS 1 µg/mL, 48 h, vs model control (p < 0.0001)
Procedure: (§1) In order to increase cytokine production, macrophages were treated with LPS at a final concentration of 1 µg/mL, and then with T. grandis compounds at 40 µM. The compounds were solubilized in DMEM medium containing 0.1% DMSO. Dexamethasone was employed as a positive control (5 µg/mL). A centrifuge was used to separate the supernatant from the cells after 48 h of incubation, with three replicates per group. Quantification of TNF-α, IL-1β and IL-6 secretion was achieved by following the ELISA manufacturer's instructions. Then, absorbance was measured at 450 nm. Relative TNF-α, IL-1β and IL-6 expression was calculated according to Equation (4). Following the inflammatory factor test, cell viability was detected by CellTiter96® Aqueous One Solution Cell Proliferation Assay. Then, 20 μL/well CellTiter96® Aqueous One Solution Cell Growth Assay reagent was added to the plate and incubated at 37 °C for 8 h, absorbance was measured at […] and relative cell viability was calculated according to Equation (5). Relative content of inflammatory cytokines (%) = (A1/A2)/A3 × 100%(4) where A1 is the concentrations value of inflammatory cytokines of each group, A2 is the relative cell viability of each group (model group is 100) and A3 is the concentration of inflammatory cytokines of model group. Cell viability rate (%) = B1/B2 × 100%(5) where B1 is the OD value of each fraction group or positive control group and B2 is the OD value of the model control.

[3] = test system: IL-6; experiment: IL-6 secretion in LPS-stimulated RAW 264.7 macrophages (ELISA); format: cell-based, mouse; conditions: 40 µM, LPS 1 µg/mL, 48 h, vs model control (p < 0.05)
Procedure: as §1

[4] = test system: α-glucosidase; experiment: α-Glucosidase inhibition assay (pNPG); format: biochemical; conditions: for Inhibitory Rate (%): at a concentration of 50 µM; for IC50: compounds
Procedure: The inhibitory effect on α-glucosidase was measured according to the previous report method with slight modifications. The 20 mM sample dissolved in DMSO was diluted to 50 μM in PBS, 10 μL sample was mixed with 50 μL of 0.1 μ/mL α-glucosidase solution in 0.1 M phosphate buffer (pH 6.5) in a 96-well microplate and 10 μL PBS was used as a blank control. The mixture was incubated at 37 °C for 10 min before adding 40 µL of 5 mM 4-nitrophenyl-α-D-glucopyranoside to each well. After 30 min of incubation at 37 °C, the reaction was terminated by adding 50 μL of 0.1 M Na2CO3 to this mixture. The released 4-nitrophenol absorbance measurements were carried out using a microplate reader (SpectraMax190, USA) at 405 nm.

[5] = ABTS radical cation scavenging assay (Trolox equivalent); conditions: compounds at 50 μM
Procedure: The ABTS radical cation (ABTS•+) scavenging activities were conducted in accordance with the instructions for the ABTS kit. The total antioxidant activity values were estimated using the Trolox equivalent antioxidant capacity test. The detection concentration of methanolic extract and different fractions was 80 μg/mL, and the detection concentration of compounds (1–23) was 50 μM. […] Then, 190 μL of ABTS working reagent was mixed with 10 μL sample and incubated at room temperature for 5 min. The absorbance was then measured using a microplate reader at 734 nm, and the scavenging activity was calculated according to Equation (2). The blank control group used DMSO to replace the sample. […] The analysis was performed in triplicates, 1.424, 0.0012 was a constant.

[6] = test system: TNF-α; experiment: TNF-α secretion in LPS-stimulated RAW 264.7 macrophages (ELISA); format: cell-based, mouse; conditions: 40 µM, LPS 1 µg/mL, 48 h, vs model control (p < 0.01)
Procedure: as §1

[7] = Ferric reducing antioxidant power (FRAP) assay; conditions: compounds at 50 μM; Trolox equivalent
Procedure: The FRAP assay was determined in accordance with the instructions for the FRAP kit. The total antioxidant activity values were estimated using the Trolox equivalent antioxidant capacity test. Initially, the detection concentration of methanolic extract and different fractions was 80 μg/mL, and the detection concentration of compounds (1–23) was 50 μM. Then, 190 μL of FRAP working reagent was mixed with 10 μL sample and incubated at room temperature for 20 min. The absorbance was then measured using a microplate reader at 593 nm, and the scavenging activity was calculated according to Equation (3). The blank control group used DMSO to replace the sample. […] The analysis was performed in triplicates, 0.8054, 0.0134 was a constant.

[8] = test system: pBR322 DNA; experiment: Prevention of AAPH-induced DNA oxidative damage; conditions: AAPH 20 mM; p < 0.0001 vs model
Procedure: The effects of T. grandis methanolic extract, different fractions and its compounds 15, 19 and 23 on the prevention of DNA oxidative damage were carried out using the method of Han et al.. Initially, 8 μL pBR322 DNA (50 μg/mL) in PBS (0.1 M, pH 6.8) was mixed with different concentrations of T. grandis fractions and its compounds (12 μL) and incubated in water at 37 °C for 30 min. Then, 5 μL AAPH (20 mM) was added to the mixture and the reaction continued for 60 min. The control group used the same volume of PBS (0.1 M, pH 6.8) to replace AAPH. The pre-treated samples were mixed with 5 × DNA loading buffer, and the mixture (8 μL) was taken for 1.0% agarose gel electrophoresis for 25 min. After electrophoresis, the gels were stained with ethidium bromide for 20 min. Finally, images were taken using a DNA gel imaging system (ChampChemi 610, Beijing sage creation Co., Ltd. Beijing, China).

[9] = test system: BSA; experiment: Prevention of AAPH-induced protein oxidative damage; design: species or system Bovine; conditions: AAPH 160 mM; residual BSA
Procedure: The protective activities of T. grandis methanolic extract, different fractions and its compounds 15 and 23 on protein oxidative damage were carried out using the method of Yang et al.. Initially, 20 μL BSA solutions (1 mg/mL) in PBS (0.1 M, pH 6.8) were mixed with different concentrations of fractions (40 μL) and compounds (40 μL) and incubated in water at 37 °C for 30 min. Then, 40 μL AAPH (160 mM) was added to the mixture and the reaction continued for 4 h. The control group used the same volume of PBS (0.1 M, pH 6.8) to replace AAPH. The pre-treated samples were added to 5 × SDS loading buffer and treated in water at 95 °C for 15 min. […] After electrophoresis, the gels were stained with Coomassie brilliant blue R-250 dye (0.25%, w/v), and then the gels were decolorized with the decolorizing solution. Finally, images were taken using the SDS-PAGE gel imaging system (ChampChemi 610, China) and the grayscale of Western blot was analyzed using Image J software.

Row | SMILES | EC50 [1] | effect on IL-1β inflammatory factor level [2] | effect on IL-6 inflammatory factor expression [3] | Inhibitory Rate (%) [4] | IC50 [4] | ABTS Assay [5] | effect on TNF-α inflammatory factor level [6] | FRAP Assay [7] | concentration at which a protective effect against DNA oxidative damage begins [8] | concentration at which a protective effect against protein oxidative damage begins [9]
1 | O=c1cc(-c2ccc(O)c(O)c2)oc2cc(O[C@@H]3O[C@H](CO)[C@@H](O)[C@H](O)[C@H]3O)cc(O)c12 [Compound 1, luteolin-7-O-β-D-glucoside] | 8.09 ± 1.05 µM | significant decrease | significant activities in reducing the expression | 10.62 ± 1.39 ^d % | > 50 µM | 0.08 ± 0.01 ^d mmol Trolox/L | could decrease |  |  | 
2 | COC(=O)c1cc(O)c2c(c1)C(=O)c1ccccc1C2=O [Compound 13, 3-carbomethoxy-1-hydroxy-9,10-anthraquinone] | 3.56 ± 0.53 µM | significant decrease | significant activities in reducing the expression | 13.84 ± 0.93 ^d % | > 50 µM | 0.04 ± 0.00 ^d mmol Trolox/L |  | 0.01± 0.01 ^c mmol Trolox/L |  | 
3 | C[C@@H]1O[C@@H](O[C@@H]2[C@@H](O)[C@H](OCCc3ccc(O)c(O)c3)O[C@H](CO)[C@H]2OC(=O)/C=C/c2ccc(O)c(O)c2)[C@H](O)[C@H](O)[C@H]1O [Compound 15, verbascoside] | 1.99 ± 0.34 µM |  |  | 18.30 ± 2.22 ^cd % | > 50 µM | 1.10 ± 0.77 ^a mmol Trolox/L |  | 1.22 ± 0.11 ^a mmol Trolox/L | 0.6 mM | 40 µM
4 | CC1CCC2(C(=O)OC3OC(CO)C(O)C(O)C3OC3OC(CO)C(O)C(O)C3O)CCC3(C)C(=CCC4C5(C)CC(O)C(O)C(C)(CO)C5CCC43C)C2C1(C)O [Compound 18, 2β,3β,19α,23-tetrahydroxy-urs-12-en-28-O-[β-D-glucopyranosyl (1-2)-β-D-glucopyranosyl] ester] | 8.45 ± 0.57 µM | significant decrease | significant activities in reducing the expression | 22.91 ± 1.10 ^c % | > 50 µM |  | could decrease | 0.39 ± 0.00 ^b mmol Trolox/L |  | 
